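GI50 is the concentration that inhibits growth by half. Definition used: TGI = concentration required for complete inhibition of growth.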
How the values were obtained:
Assay in all cases: NCI anticancer screen, dose series, 384-well format
786-0 renal = test system: 786-0 renal
A498 renal = test system: A498 renal
A549 NSCLC = test system: A549 NSCLC
ACHN renal = test system: ACHN renal
BT-549 breast = test system: BT-549 breast
CAKI-1 renal = test system: CAKI-1 renal
CCRF-CEM leukemia = test system: CCRF-CEM leukemia
COLO 205 colon = test system: COLO 205 colon
DU-145 prostate = test system: DU-145 prostate
EKVX NSCLC = test system: EKVX NSCLC
HCC-2998 colon = test system: HCC-2998 colon
HCT-116 colon = test system: HCT-116 colon
HCT-15 colon = test system: HCT-15 colon
HL-60(TB) leukemia = test system: HL-60(TB) leukemia
HOP-62 NSCLC = test system: HOP-62 NSCLC
HOP-92 NSCLC = test system: HOP-92 NSCLC
HS 578T breast = test system: HS 578T breast
HT29 colon = test system: HT29 colon
IGROV1 ovarian = test system: IGROV1 ovarian
K-562 leukemia = test system: K-562 leukemia
KM12 colon = test system: KM12 colon
LOX IMVI melanoma = test system: LOX IMVI melanoma
M14 melanoma = test system: M14 melanoma
MALME-3M melanoma = test system: MALME-3M melanoma
MCF7 breast = test system: MCF7 breast
MDA-MB-231 breast = test system: MDA-MB-231 breast
MDA-MB-435 melanoma = test system: MDA-MB-435 melanoma
MDA-MB-468 breast = test system: MDA-MB-468 breast
MOLT-4 leukemia = test system: MOLT-4 leukemia
NCI-H226 lung = test system: NCI-H226 lung
NCI-H23 lung = test system: NCI-H23 lung
NCI-H322M lung = test system: NCI-H322M lung
NCI-H460 NSCLC = test system: NCI-H460 NSCLC
NCI-H522 lung = test system: NCI-H522 lung
NCI/ADR-RES ovarian = test system: NCI/ADR-RES ovarian
OVCAR-3 ovarian = test system: OVCAR-3 ovarian
OVCAR-4 ovarian = test system: OVCAR-4 ovarian
OVCAR-8 ovarian = test system: OVCAR-8 ovarian
PC-3 prostate = test system: PC-3 prostate
RPMI-8226 leukemia = test system: RPMI-8226 leukemia
RXF 393 renal = test system: RXF 393 renal
SF-268 CNS = test system: SF-268 CNS
SF-295 CNS = test system: SF-295 CNS
SF-539 CNS = test system: SF-539 CNS
SK-MEL-28 melanoma = test system: SK-MEL-28 melanoma
SK-MEL-5 melanoma = test system: SK-MEL-5 melanoma
SK-OV-3 ovarian = test system: SK-OV-3 ovarian
SN12C renal = test system: SN12C renal
SNB-19 CNS = test system: SNB-19 CNS
SNB-75 CNS = test system: SNB-75 CNS
SR leukemia = test system: SR leukemia
SW-620 colon = test system: SW-620 colon
T-47D breast = test system: T-47D breast
TK-10 renal = test system: TK-10 renal
U251 glioblastoma = test system: U251 glioblastoma
UACC-257 melanoma = test system: UACC-257 melanoma
UACC-62 melanoma = test system: UACC-62 melanoma
UO-31 renal = test system: UO-31 renal

Nc1nc(-n2cccn2)nc(-n2cccn2)c1Br
GI50 ([…]-0 renal): > 100 µM
TGI (786-0 renal): > 100 µM
GI50 (A498 renal): > 100 µM
TGI (A498 renal): > 100 µM
GI50 (A549 NSCLC): > 100 µM
TGI (A549 NSCLC): > 100 µM
GI50 (ACHN renal): > 100 µM
TGI (ACHN renal): > 100 µM
GI50 (BT-549 breast): > 100 µM
TGI (BT-549 breast): > 100 µM
GI50 (CAKI-1 renal): > 100 µM
TGI (CAKI-1 renal): > 100 µM
GI50 (CCRF-CEM leukemia): > 100 µM
TGI (CCRF-CEM leukemia): > 100 µM
GI50 (COLO 205 colon): > 100 µM
TGI (COLO 205 colon): > 100 µM
GI50 (DU-145 prostate): > 100 µM
TGI (DU-145 prostate): > 100 µM
GI50 (EKVX NSCLC): > 100 µM
TGI (EKVX NSCLC): > 100 µM
GI50 (HCC-2998 colon): > 100 µM
TGI (HCC-2998 colon): > 100 µM
GI50 (HCT-116 colon): > 100 µM
TGI (HCT-116 colon): > 100 µM
GI50 (HCT-15 colon): > 100 µM
TGI (HCT-15 colon): > 100 µM
GI50 (HL-60(TB) leukemia): > 100 µM
TGI (HL-60(TB) leukemia): > 100 µM
GI50 (HOP-62 NSCLC): > 100 µM
TGI (HOP-62 NSCLC): > 100 µM
GI50 (HOP-92 NSCLC): > 100 µM
TGI (HOP-92 NSCLC): > 100 µM
GI50 (HS 578T breast): > 100 µM
TGI (HS 578T breast): > 100 µM
GI50 (HT29 colon): > 100 µM
TGI (HT29 colon): > 100 µM
GI50 (IGROV1 ovarian): > 100 µM
TGI (IGROV1 ovarian): > 100 µM
GI50 (K-562 leukemia): > 100 µM
TGI (K-562 leukemia): > 100 µM
GI50 (KM12 colon): > 100 µM
TGI (KM12 colon): > 100 µM
GI50 (LOX IMVI melanoma): > 100 µM
TGI (LOX IMVI melanoma): > 100 µM
GI50 (M14 melanoma): > 100 µM
TGI (M14 melanoma): > 100 µM
GI50 (MALME-3M melanoma): > 100 µM
TGI (MALME-3M melanoma): > 100 µM
GI50 (MCF7 breast): > 100 µM
TGI (MCF7 breast): > 100 µM
GI50 (MDA-MB-231 breast): > 100 µM
TGI (MDA-MB-231 breast): > 100 µM
GI50 (MDA-MB-435 melanoma): > 100 µM
TGI (MDA-MB-435 melanoma): > 100 µM
GI50 (MDA-MB-468 breast): > 100 µM
TGI (MDA-MB-468 breast): > 100 µM
GI50 (MOLT-4 leukemia): > 100 µM
TGI (MOLT-4 leukemia): > 100 µM
GI50 (NCI-H226 lung): > 100 µM
TGI (NCI-H226 lung): > 100 µM
GI50 (NCI-H23 lung): > 100 µM
TGI (NCI-H23 lung): > 100 µM
GI50 (NCI-H322M lung): > 100 µM
TGI (NCI-H322M lung): > 100 µM
GI50 (NCI-H460 NSCLC): > 100 µM
TGI (NCI-H460 NSCLC): > 100 µM
GI50 (NCI-H522 lung): > 100 µM
TGI (NCI-H522 lung): > 100 µM
GI50 (NCI/ADR-RES ovarian): > 100 µM
TGI (NCI/ADR-RES ovarian): > 100 µM
GI50 (OVCAR-3 ovarian): > 100 µM
TGI (OVCAR-3 ovarian): > 100 µM
GI50 (OVCAR-4 ovarian): > 100 µM
TGI (OVCAR-4 ovarian): > 100 µM
GI50 (OVCAR-8 ovarian): > 100 µM
TGI (OVCAR-8 ovarian): > 100 µM
GI50 (PC-3 prostate): > 100 µM
TGI (PC-3 prostate): > 100 µM
GI50 (RPMI-8226 leukemia): > 100 µM
TGI (RPMI-8226 leukemia): > 100 µM
GI50 (RXF 393 renal): > 100 µM
TGI (RXF 393 renal): > 100 µM
GI50 (SF-268 CNS): > 100 µM
TGI (SF-268 CNS): > 100 µM
GI50 (SF-295 CNS): > 100 µM
TGI (SF-295 CNS): > 100 µM
GI50 (SF-539 CNS): > 100 µM
TGI (SF-539 CNS): > 100 µM
GI50 (SK-MEL-28 melanoma): > 100 µM
TGI (SK-MEL-28 melanoma): > 100 µM
GI50 (SK-MEL-5 melanoma): > 100 µM
TGI (SK-MEL-5 melanoma): > 100 µM
GI50 (SK-OV-3 ovarian): > 100 µM
TGI (SK-OV-3 ovarian): > 100 µM
GI50 (SN12C renal): > 100 µM
TGI (SN12C renal): > 100 µM
GI50 (SNB-19 CNS): > 100 µM
TGI (SNB-19 CNS): > 100 µM
GI50 (SNB-75 CNS): > 100 µM
TGI (SNB-75 CNS): > 100 µM
GI50 (SR leukemia): > 100 µM
TGI (SR leukemia): > 100 µM
GI50 (SW-620 colon): > 100 µM
TGI (SW-620 colon): > 100 µM
GI50 (T-47D breast): > 100 µM
TGI (T-47D breast): > 100 µM
GI50 (TK-10 renal): > 100 µM
TGI (TK-10 renal): > 100 µM
GI50 (U251 glioblastoma): > 100 µM
TGI (U251 glioblastoma): > 100 µM
GI50 (UACC-257 melanoma): > 100 µM
TGI (UACC-257 melanoma): > 100 µM
GI50 (UACC-62 melanoma): > 100 µM
TGI (UACC-62 melanoma): > 100 µM
GI50 (UO-31 renal): > 100 µM
TGI (UO-31 renal): > 100 µM
